Results as given in US20120040951A1, “HETEROARYL COMPOUNDS USEFUL AS RAF KINASE INHIBITORS” (priority 2008, published 2012).

Columns and labels:
V599E Raf = V599E Raf (Homo sapiens, UniProt P15056, V600E); assay: Biochemical FRET assay, mutant Raf (phosphorylation of MEK); details: 0.125 nM V599E Raf, 100 nM biotin-MEK, 25 μM ATP, read-out: Raf (mut) inhibition
Method: (1) Biochemical FRET Assay […]
Inhibitors were diluted 4-fold in 100% DMSO and added to a final concentration of 10 μM to 40 μM to a solution containing 100 nM biotin-MEK, 0.125 nM V599E Raf in 50 mM HEPES, pH 7.4, 60 mM NaCl, 3 mM MgCl2, 2 mM DTT, 0.25 mM MnCl2, 0.01% BSA, and 0.01% Tween-20 and incubated for 20 minutes at room temperature. The kinase reaction was started by the addition of 25 μM ATP to a final volume of 45 μl and allowed to progress for 60 minutes. The reaction was stopped with 15 mM EDTA and 20 nM Streptavidin-APC, 2.5 nM Polyclonal anti p-MEK1/2 (Ser217/221), 2.5 nM Eu-labeled anti-rabbit IgG were added in Lance detection buffer and 5% Superblock in PBS for a final volume of 100 μl. The detection reaction was incubated for 90 minutes at room temperature and then read on an Analyst plate reader using standard TR-FRET (time resolved fluorescence resonance energy transfer) settings for Eu and APC.
Compounds having an activity designated as “A” provided an IC50≦100 nM; compounds having an activity designated as “B” provided an IC50 of 100-1000 nM; and compounds having an activity designated as “C” provided an IC50 of 1000-10,000 nM.

[1] = test system: phospho-ERK in melanoma derived WM-266-4 cells; assay: Mechanistic cellular assay for Raf kinase activity (phospho-ERK, Bio-Plex); format: cell-based; details: Homo sapiens, treated 1-2 hr at 37° C., serum free medium, read-out: pERK EC50
Procedure, shortened: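 WM-266-4 melanoma cells (wild-type/V600D BRaf) grown overnight in 10% FBS RPMI, then treated 1–2 h at 37 °C in serum-free RPMI with eight 3-fold dilutions of compound (from 5 mM DMSO stock, 1000× dilution). Lysate phospho-ERK1,2 quantified by Bio-Plex bead immunoassay.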

V599E Raf, sequence (P15056 whole entry V600E): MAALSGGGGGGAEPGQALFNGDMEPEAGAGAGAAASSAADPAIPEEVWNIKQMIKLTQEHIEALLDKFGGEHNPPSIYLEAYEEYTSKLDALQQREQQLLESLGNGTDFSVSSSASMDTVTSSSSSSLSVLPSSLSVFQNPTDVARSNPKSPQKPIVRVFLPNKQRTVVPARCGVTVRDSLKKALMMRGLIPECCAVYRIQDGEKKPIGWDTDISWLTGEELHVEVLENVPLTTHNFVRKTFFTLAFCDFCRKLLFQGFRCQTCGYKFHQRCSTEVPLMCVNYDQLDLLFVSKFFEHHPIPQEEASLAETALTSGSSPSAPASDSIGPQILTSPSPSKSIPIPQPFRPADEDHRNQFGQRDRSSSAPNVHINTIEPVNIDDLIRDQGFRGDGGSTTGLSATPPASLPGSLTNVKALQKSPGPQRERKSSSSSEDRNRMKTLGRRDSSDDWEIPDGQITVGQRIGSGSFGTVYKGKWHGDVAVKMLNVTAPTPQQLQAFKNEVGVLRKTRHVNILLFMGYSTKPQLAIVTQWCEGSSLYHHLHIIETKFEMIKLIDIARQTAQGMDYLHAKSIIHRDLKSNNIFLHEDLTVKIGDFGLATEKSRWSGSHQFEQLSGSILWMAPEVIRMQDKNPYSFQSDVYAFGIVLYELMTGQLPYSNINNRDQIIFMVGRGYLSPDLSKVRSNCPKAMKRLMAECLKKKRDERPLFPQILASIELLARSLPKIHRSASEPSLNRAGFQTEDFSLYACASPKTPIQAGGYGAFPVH

Structure (SMILES)	IC50 (V599E Raf)	EC50 [1]
CCCNc1ncc(C(=O)N[C@H](C)c2ncc(C(=O)Nc3cc(C(F)(F)F)c(Cl)cn3)s2)n1C [Example 153]	100 to 1000 nM	1000 to 10000 nM
C[C@@H](NC(=O)c1cnn2ccccc12)c1cc(C(=O)Nc2ccc(Br)c(C(F)(F)F)c2)on1 [Example 209]	100 to 1000 nM	≤ 100 nM
C[C@@H](NC(=O)c1ccc(N)cc1)c1ncc(C(=O)Nc2cc(C(F)(F)F)c(Cl)cn2)s1 [Example 54]	100 to 1000 nM	1000 to 10000 nM
C[C@@H](NC(=O)c1cnn(-c2ccccc2)c1N)c1ncc(C(=O)Nc2cc(C(F)(F)F)c(Cl)cn2)s1 [Example 121]	100 to 1000 nM	100 to 1000 nM
CCc1[nH]ncc1C(=O)N[C@H](C)c1ncc(C(=O)Nc2cc(C(F)(F)F)c(Cl)cn2)s1 [Example 125]	100 to 1000 nM	100 to 1000 nM
Cc1ccc(NC(=O)c2cc([C@@H](C)NC(=O)c3cnn4cccnc34)no2)cc1C(F)(F)F [Example 221]	100 to 1000 nM	100 to 1000 nM
CC(NC(=O)c1cnn2ccccc12)c1ncc(C(=O)Nc2ccc(Cl)c(C(F)(F)F)c2)s1 (stereo not drawn) [Example 222]	100 to 1000 nM	≤ 100 nM
CCn1cnc2cnc(C(=O)NC(C)c3cnc(Nc4ccc(C(F)(F)F)cc4)s3)nc21 (stereo not drawn) [Example 198]	≤ 100 nM	100 to 1000 nM
CC(NC(=O)c1cc2c(cn1)ncn2C)c1cnc(Nc2ccc(C(F)(F)F)cc2)cn1 (stereo not drawn) [Example 35]	≤ 100 nM	≤ 100 nM
CCN1CC(n2cnc3cnc(C(=O)N[C@H](C)c4cnc(Nc5ccc(C(F)(F)F)cc5)cn4)cc32)C1 (stereo in doubt) [Example 180]	≤ 100 nM	100 to 1000 nM
CC(NC(=O)c1cnn2ccccc12)c1cnc(Nc2ccc(C(F)(F)F)cc2)s1 (stereo not drawn) [Example 224]	≤ 100 nM	100 to 1000 nM
C[C@@H](NC(=O)c1cc2c(cn1)ncn2C)c1ncc(C(=O)Nc2cc(C(F)(F)F)c(Cl)cn2)s1 [Example 42]	≤ 100 nM	≤ 100 nM
CC(NC(=O)c1cc2cn(C)nc2cn1)c1cnc(Nc2ccc(C(F)(F)F)cc2)s1 (stereo not drawn) [Example 203]	≤ 100 nM	≤ 100 nM
CC(NC(=O)c1cc2c(cn1)ncn2C)c1cnc(Nc2ccc(F)c(C(C)(C)C(F)(F)F)c2)s1 (stereo not drawn) [Example 290]	≤ 100 nM	≤ 100 nM
C[C@@H](NC(=O)c1cccc(N2CCCCC2)n1)c1ncc(C(=O)Nc2cc(C(F)(F)F)c(Cl)cn2)s1 [Example 94]	100 to 1000 nM	1000 to 10000 nM
CC(NC(=O)c1cnn2cc(-c3cccnc3)ccc12)c1ncc(C(=O)Nc2cc(C(F)(F)F)c(Cl)cn2)s1 (stereo not drawn) [Example 320]	≤ 100 nM	≤ 100 nM
C[C@@H](NC(=O)c1cc2c(cn1)ncn2[C@H]1CCNC1)c1cnc(Nc2ccc(C(F)(F)F)cc2)s1 [Example 31]	≤ 100 nM	100 to 1000 nM
C[C@@H](NC(=O)c1cn2c(Br)cnc2cn1)c1cnc(Nc2ccc(C(F)(F)F)cc2)s1 [Example 298]	≤ 100 nM	≤ 100 nM
CCn1cnc2cnc(C(=O)NC(C)c3cnc(Nc4ccc(C(F)(F)F)cc4)s3)cc21 (stereo not drawn) [Example 6]	≤ 100 nM	≤ 100 nM
Cc1ncoc1C(=O)N[C@H](C)c1ncc(C(=O)Nc2cc(C(F)(F)F)c(Cl)cn2)s1 [Example 103]	≤ 100 nM	1000 to 10000 nM
CC(C)n1cc(C(=O)N[C@H](C)c2ncc(C(=O)Nc3cc(C(F)(F)F)c(Cl)cn3)s2)cn1 [Example 134]	100 to 1000 nM	100 to 1000 nM
CC(NC(=O)c1cn2c(C(F)(F)F)cnc2cn1)c1cnc(Nc2ccc(C(F)(F)F)cc2)s1 (stereo not drawn) [Example 300]	≤ 100 nM	1000 to 10000 nM
CC(NC(=O)c1cnc2nccn2c1)c1cnc(Nc2ccc(C(F)(F)F)cc2)s1 (stereo not drawn) [Example 309]	100 to 1000 nM	1000 to 10000 nM
C[C@@H](NC(=O)c1cnc(C#N)n1C)c1ncc(C(=O)Nc2cc(C(F)(F)F)c(Cl)cn2)s1 [Example 150]	≤ 100 nM	1000 to 10000 nM
CC(NC(=O)c1cc2c(cn1)ncn2C)c1cnc(Nc2cc(C(C)(C)C)ccc2F)s1 (stereo not drawn) [Example 279]	≤ 100 nM	≤ 100 nM
CC(NC(=O)c1cc2c(cn1)ncn2C)c1cnc(Nc2cc(S(=O)(=O)C(F)(F)F)ccc2Cl)cn1 (stereo not drawn) [Example 276]	≤ 100 nM	≤ 100 nM
C[C@@H](NC(=O)c1cnc(CN2CCCC2)n1C)c1ncc(C(=O)Nc2cc(C(F)(F)F)c(Cl)cn2)s1 [Example 155]	≤ 100 nM	1000 to 10000 nM

Next, values leading:

IC50 (V599E Raf)	EC50 [1]	Structure (SMILES)
≤ 100 nM	100 to 1000 nM	CC(NC(=O)c1cc2nc[nH]c2cn1)c1cnc(Nc2ccc(C(F)(F)F)cc2)s1 (stereo not drawn) [Example 5]
≤ 100 nM	1000 to 10000 nM	CC(NC(=O)c1cc2c(cn1)ncn2CC(=O)O)c1cnc(Nc2ccc(C(F)(F)F)cc2)s1 (stereo not drawn) [Example 354]
≤ 100 nM	≤ 100 nM	CC(NC(=O)c1cc2c(cn1)ncn2C1CCC1)c1cnc(Nc2ccc(C(F)(F)F)nc2)s1 (stereo not drawn) [Example 292]
≤ 100 nM	100 to 1000 nM	CCOc1cc(C(F)(F)F)ccc1Nc1ncc(C(C)NC(=O)c2cc3c(cn2)ncn3C)s1 (stereo not drawn) [Example 283]
≤ 100 nM	1000 to 10000 nM	CC(NC(=O)c1cnc2ncccn12)c1cnc(Nc2ccc(C(F)(F)F)cc2)s1 (stereo not drawn) [Example 310]
≤ 100 nM	1000 to 10000 nM	C[C@@H](NC(=O)c1ccc2[nH]nnc2c1)c1ncc(C(=O)Nc2cc(C(F)(F)F)c(Cl)cn2)s1 [Example 57]
≤ 100 nM	≤ 100 nM	C[C@@H](NC(=O)c1cnn(C)c1N)c1ncc(C(=O)Nc2cc(C(F)(F)F)c(Cl)cn2)s1 [Example 127]
≤ 100 nM	≤ 100 nM	CC(NC(=O)c1cc2c(cn1)ncn2C)c1cnc(Nc2cccc(C(C)(C)C(F)(F)F)c2)cn1 (stereo not drawn) [Example 273]
≤ 100 nM	100 to 1000 nM	CC(NC(=O)c1cnn(C)c1N)c1cnc(Nc2ccc(C(F)(F)F)cc2)s1 (stereo not drawn) [Example 108]
≤ 100 nM	≤ 100 nM	C[C@@H](NC(=O)c1cc2c(cn1)ncn2C1CN(C(=O)OC(C)(C)C)C1)c1cnc(Nc2ccc(C(F)(F)F)cc2)s1 [Example 24]
≤ 100 nM	100 to 1000 nM	C[C@@H](NC(=O)c1cnn2ccccc12)c1ncc(C(=O)Nc2cc(C(F)(F)F)c(Cl)cn2)s1 [Example 86]
≤ 100 nM	100 to 1000 nM	C[C@@H](NC(=O)c1cc2c(cn1)ncn2C1CN(C)C1)c1cnc(Nc2ccc(C(F)(F)F)cc2)s1 [Example 182]
≤ 100 nM	1000 to 10000 nM	Cc1nc2cc(C(=O)N[C@H](C)c3ncc(C(=O)Nc4cc(C(F)(F)F)c(Cl)cn4)s3)ccc2n1CCO [Example 52]
≤ 100 nM	1000 to 10000 nM	C[C@@H](NC(=O)c1ccc2c(c1)OCCN2C)c1ncc(C(=O)Nc2cc(C(F)(F)F)c(Cl)cn2)s1 [Example 71]
≤ 100 nM	≤ 100 nM	CC(NC(=O)c1cc2c(cn1)ncn2C)c1cnc(Nc2ccc(C(F)(F)F)cc2Cl)s1 (stereo not drawn) [Example 245]
≤ 100 nM	100 to 1000 nM	CC(NC(=O)c1cc2c(cn1)ncn2C)c1ccc(Nc2ccc(C(F)(F)F)cc2)nc1 (stereo not drawn) [Example 339]
≤ 100 nM	≤ 100 nM	C[C@@H](NC(=O)c1cc2c(cn1)ncn2C1CN(S(C)(=O)=O)C1)c1cnc(Nc2ccc(C(F)(F)F)cc2)s1 [Example 346]
≤ 100 nM	100 to 1000 nM	CNc1nc(C(C)(C)C)ncc1Nc1ncc(C(C)NC(=O)c2cc3c(cn2)ncn3C)s1 (stereo not drawn) [Example 280]
≤ 100 nM	1000 to 10000 nM	CC(NC(=O)c1cncc(N)c1)c1ncc(C(=O)Nc2cc(C(F)(F)F)c(Cl)cn2)s1 (stereo not drawn) [Example 44]
≤ 100 nM	≤ 100 nM	CC(NC(=O)c1cc2c(cn1)ncn2C)c1cnc(Nc2ccc(F)c(S(=O)(=O)C(F)(F)F)c2)cn1 (stereo not drawn) [Example 268]
≤ 100 nM	≤ 100 nM	C[C@@H](NC(=O)c1ccc2ncccc2c1)c1ncc(C(=O)Nc2cc(C(F)(F)F)c(Cl)cn2)s1 [Example 58]
≤ 100 nM	1000 to 10000 nM	Cc1nc(C)c(C(=O)N[C@H](C)c2ncc(C(=O)Nc3cc(C(F)(F)F)c(Cl)cn3)s2)s1 [Example 101]
≤ 100 nM	100 to 1000 nM	COC(=O)c1cc(Nc2ncc(C(C)NC(=O)c3cc4c(cn3)ncn4C)s2)cc(C(C)(C)C)c1 (stereo not drawn) [Example 351]
≤ 100 nM	1000 to 10000 nM	CC(NC(=O)c1ccc2ncccc2c1)c1cnc(Nc2ccc(C(F)(F)F)cc2)s1 (stereo not drawn) [Example 72]
≤ 100 nM	≤ 100 nM	CC(NC(=O)c1cc2c(cn1)ncn2C1CCC1)c1cnc(Nc2cnc(C(C)(C)C)nc2)s1 (stereo not drawn) [Example 286]
≤ 100 nM	≤ 100 nM	CCN1CC[C@@H](n2cnc3cnc(C(=O)N[C@H](C)c4cnc(Nc5ccc(C(F)(F)F)cc5)s4)cc32)C1 [Example 28]
≤ 100 nM	1000 to 10000 nM	C[C@@H](NC(=O)c1cnn(Cc2ccccc2)c1)c1ncc(C(=O)Nc2cc(C(F)(F)F)c(Cl)cn2)s1 [Example 118]
